According to patent US20150328147A1, “METHOD FOR INTRODUCING BIOLOGICALLY ACTIVE SUBSTANCES INTO THE BRAIN” (BBU-VITA CORP., priority 2012, published 2015):
Like-named read-outs stand apart in the source and are kept apart here.

Key:
[1] = system: haloperidol catalepsy model
Source text: The criteria of the evaluation: the change in spontaneous motor activity as the sum of movements of the rats in different groupings of the animals, in the “open field” test.

[2] = system: haloperidol catalepsy model; conditions: for re-animation of spontaneous motor activity: nasal 2 × 50 μL after haloperidol i.p., dopamine 10^−2M (0.8 mg/kg), H2O2 10^−5M (34 ng/animal)
[3] = system: haloperidol catalepsy model; remark: listed apart in the source
Source text: The criteria of the evaluation: the change in spontaneous motor activity as the sum of movements of the rats in different groupings of the animals, in the “open field” test. The animal groups: control group: “intact control” (Group I), “haloperidol i.p.” (Group II), “haloperidol i.p.+nasal dopamine” (Group III), and “haloperidol i.p.+nasal L-arginine” in various concentrations (Groups IV and V).

[4] = system: haloperidol catalepsy model; conditions: earlier demonstration (DE 102 48 601); cited from earlier work
[5] = system: sexually mature white rats; experiment: Experiment 3: duration of phenobarbital sleep after single or fractionated nasal administration with H2O2; format: in vivo; conditions: phenobarbital 90 mg/kg, H2O2 10^−5M
Source text: Experiment 3: The effect of phenobarbital was investigated experimentally on sexually mature white rats, using a nasal administration. The sleep duration conditioned by phenobarbital following nasal administration of phenobarbital was compared against the presence and absence of vaso-active and neuroactive substance. The typical results of an experiment are listed in Tab. 4.

[6] = Experiment 1, haloperidol i.p. 100 mg/kg, without H2O2, nasal dopamine 10^−3M where given, sum of movements, open field
[7] = Experiment 2, haloperidol i.p. 100 mg/kg, without L-arginine, nasal dopamine 10^−3M where given, sum of movements, open field
[8] = with nasal dopamine 10^−3M, haloperidol model

O=C(CCCN1CCC(O)(c2ccc(Cl)cc2)CC1)c1ccc(F)cc1 [haloperidol]
Spontaneous activity [1, 6]: 3 ± 3 ^##)
reduction of spontaneous motor activity ([2]; single i.p. haloperidol 0.25 mg/kg, cataleptic response): 85%
Spontaneous activity [3, 7]: 3.7 ± 3 ^##)

N=C(N)NCCC[C@H](N)C(=O)O [L-arginine]
Spontaneous activity ([3]; Experiment 2, haloperidol i.p., nasal L-arginine 10^−3M (dopamine 10^−3M in the mixture)): 6.4 ± 3.4 ^##)
Spontaneous activity ([3]; Experiment 2, haloperidol i.p., nasal L-arginine 10^−5M): 4.8 ± 2.7 ^##)
minimal effective concentration of the endonasal L-arginine [3, 8]: ~10^−7 M
reanimation of spontaneous motor activity by L-arginine administered nasally together with dopamine [4]: able to reanimate spontaneous motor activity

NCCc1ccc(O)c(O)c1 [dopamine]
Spontaneous activity [1, 6]: 2 ± 1.7 ^##)
re-animation of spontaneous motor activity [2]: did not re-animate the motor activity
Spontaneous activity [3, 7]: 2.6 ± 1.7 ^##)

OO [H2O2, hydrogen peroxide]
Spontaneous activity ([1]; Experiment 1, haloperidol i.p., nasal H2O2 10^−4M (dopamine 10^−3M in the mixture)): 1.8 ± 2.2 ^##)
Spontaneous activity ([1]; Experiment 1, haloperidol i.p., nasal H2O2 10^−5M): 3 ± 1.9 ^##)
minimal effective concentration of the endonasal hydrogen peroxide [1, 8]: 10^−8 to 10^−10 M
re-animation of spontaneous motor activity [2]: did not re-animate the motor activity

CCC1(c2ccccc2)C(=O)NC(=O)NC1=O [phenobarbital]
Duration of the experimental sleep (Minutes following the last administration) ([5]; single nasal application of the full dose 18 mg, 2 × 100 μL): 128 ± 11.1 min
Duration of the experimental sleep (Minutes following the last administration) ([5]; triple nasal application of partial doses 3 × 6 (mg), interval 60 s): 161 ± 21.1 min
